Laboratory results as given in the supplement of paper PMC10307832.

Tests used:
Test in all cases: relative viability (nuclei count vs DMSO), 5 days (fraction); higher = more cells survive
Carboplatin + Pictilisib = compound: C1CC(C1)(C(=O)O)C(=O)O.[NH2-].[NH2-].[Pt+2] [Carboplatin] + CS(=O)(=O)N1CCN(Cc2cc3nc(-c4cccc5[nH]ncc45)nc(N4CCOCC4)c3s2)CC1 [Pictilisib] (partner 1 µM)
In short: (§1)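 One day after seeding in 1536-well plates, lung cancer cell lines were dosed by pin tool. Dosing was either single-drug or a fixed anchor-drug dose plus five library-drug doses (not always all listed) in √10 steps. After 5 days, nuclei were stained in one fix-and-stain step and counted on 4× images, and relative viability is the nuclei count of treated wells over that of vehicle wells, given as the median of duplicate plates.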

MLN4924 + Linsitinib = compound: NS(=O)(=O)OC[C@@H]1C[C@@H](n2ccc3c(N[C@H]4CCc5ccccc54)ncnc32)C[C@@H]1O [MLN4924] + C[C@]1(O)C[C@@H](c2nc(-c3ccc4ccc(-c5ccccc5)nc4c3)c3c(N)nccn32)C1 [Linsitinib] (partner 1 µM)
In short: as §1

[1] = compound: C1CC(C1)(C(=O)O)C(=O)O.[NH2-].[NH2-].[Pt+2] [Carboplatin] + CC(=O)c1c(C)c2cnc(Nc3ccc(N4CCNCC4)cn3)nc2n(C2CCCC2)c1=O [Palbociclib] (partner 0.5 µM)
In short: as §1

MLN4924 + Navitoclax = compound: NS(=O)(=O)OC[C@@H]1C[C@@H](n2ccc3c(N[C@H]4CCc5ccccc54)ncnc32)C[C@@H]1O [MLN4924] + CC1(C)CCC(c2ccc(Cl)cc2)=C(CN2CCN(c3ccc(C(=O)NS(=O)(=O)c4ccc(N[C@H](CCN5CCOCC5)CSc5ccccc5)c(S(=O)(=O)C(F)(F)F)c4)cc3)CC2)C1 [Navitoclax] (partner 0.5 µM)
In short: as §1

Cell Line	relative viability (Carboplatin + Pictilisib; first compound 0.08 µM)	relative viability (Carboplatin + Pictilisib; first compound 0.253 µM)	relative viability (Carboplatin + Pictilisib; first compound 0.8 µM)	relative viability (Carboplatin + Pictilisib; first compound 2.53 µM)	relative viability (Carboplatin + Pictilisib; first compound 8 µM)	relative viability (MLN4924 + Linsitinib; first compound 0.04 µM)	relative viability (MLN4924 + Linsitinib; first compound 0.1265 µM)	relative viability (MLN4924 + Linsitinib; first compound 0.4 µM)	relative viability (MLN4924 + Linsitinib; first compound 1.265 µM)	relative viability (MLN4924 + Linsitinib; first compound 4 µM)	relative viability ([1]; first compound 0.08 µM)	relative viability ([1]; first compound 0.253 µM)	relative viability ([1]; first compound 0.8 µM)	relative viability ([1]; first compound 2.53 µM)	relative viability ([1]; first compound 8 µM)	relative viability (MLN4924 + Navitoclax; first compound 0.04 µM)	relative viability (MLN4924 + Navitoclax; first compound 0.1265 µM)	relative viability (MLN4924 + Navitoclax; first compound 0.4 µM)	relative viability (MLN4924 + Navitoclax; first compound 1.265 µM)	relative viability (MLN4924 + Navitoclax; first compound 4 µM)
NCI-H1395	0.722	0.548	0.854	0.548	0.513	0.991	0.771	0.605	0.384	0.377	0.703	0.679	0.547	0.487	0.535	0.981	1.19	0.651	0.407	0.375
NCI-H2023	0.262	0.27	0.261	0.192	0.171	0.661	0.36	0.112	0.0836	0.0754	0.433	0.384	0.318	0.326	0.121	1	0.758	0.362	0.109	0.0667
NCI-H1666	0.527	0.561	0.404	0.403	0.389	1.01	0.504	0.263	0.225	0.252	0.687	0.685	0.549	0.602	0.6	0.858	0.503	0.328	0.213	0.224
HCC-15	0.781	0.715	0.749	0.702	0.498	0.558	0.249	0.16	0.0968	0.104	0.751	0.721	0.702	0.615	0.575	0.526	0.3	0.185	0.0995	0.114
NCI-H3122	0.62	0.659	0.549	0.593	0.563	0.958	0.429	0.291	0.172	0.115	0.17	0.211	0.17	0.183	0.189	0.929	0.448	0.262	0.171	0.164
201T	0.69	0.667	0.736	0.684	0.634	1.22	1.29	1.17	0.481	0.505	0.374	0.356	0.37	0.336	0.362	1.28	1.21	1.2	0.514	0.556
RERF-LC-KJ	0.584	0.48	0.512	0.453	0.316	0.64	0.463	0.198	0.188	0.234	1.22	1.09	0.894	0.815	0.651	0.855	0.569	0.229	0.177	0.209
NCI-H1734	0.51	0.47	0.487	0.451	0.424	1.01	1.09	0.519	0.178	0.155	0.367	0.342	0.356	0.362	0.311	0.943	0.814	0.331	0.103	0.0958
NCI-H1651	0.681	0.498	0.644	0.452	0.411	1.13	0.973	0.431	0.334	0.135	0.514	0.488	0.507	0.498	0.413	1.1	1.08	0.492	0.267	0.142
PC-14	0.815	0.744	0.62	0.698	0.349	0.975	0.79	0.366	0.143	0.144	0.552	0.509	0.411	0.239	0.117	0.997	0.788	0.593	0.13	0.0891
NCI-H1915	0.938	0.929	0.919	0.85	0.588	1.05	0.82	0.898	0.213	0.222	0.489	0.509	0.523	0.448	0.346	0.725	0.744	0.642	0.246	0.265
NCI-H1975	0.324	0.305	0.306	0.315	0.302	0.991	1.17	0.825	0.234	0.226	0.572	0.625	0.56	0.601	0.518	1.15	1.27	1.14	0.571	0.309
BEN	0.69	0.587	0.515	0.525	0.609	0.765	0.464	0.319	0.17	0.188	0.467	0.442	0.488	0.44	0.494	0.0403	0.0516	0.045	0.0476	0.0518
EPLC-272H	0.373	0.305	0.313	0.322	0.349	1.14	1.13	0.147	0.183	0.216	0.352	0.325	0.32	0.327	0.359	0.94	1.02	0.104	0.12	0.141
NCI-H2228	0.547	0.385	0.446	0.326	0.312		0.419	0.355	0.163	0.18	0.898	0.841	0.654	0.737	0.552		1.03	0.221	0.135	0.155
LU99A	0.3	0.379	0.323	0.328	0.307	0.469	0.332	0.254	0.147	0.177	0.468	0.392	0.39	0.424	0.314	0.46	0.267	0.243	0.158	0.166

Cell Line	relative viability (Carboplatin + Pictilisib; first compound 0.08 µM)	relative viability (Carboplatin + Pictilisib; first compound 0.253 µM)	relative viability (Carboplatin + Pictilisib; first compound 0.8 µM)	relative viability (Carboplatin + Pictilisib; first compound 2.53 µM)	relative viability (Carboplatin + Pictilisib; first compound 8 µM)	relative viability (MLN4924 + Linsitinib; first compound 0.04 µM)	relative viability (MLN4924 + Linsitinib; first compound 0.1265 µM)	relative viability (MLN4924 + Linsitinib; first compound 0.4 µM)	relative viability (MLN4924 + Linsitinib; first compound 1.265 µM)	relative viability (MLN4924 + Linsitinib; first compound 4 µM)	relative viability ([1]; first compound 0.08 µM)	relative viability ([1]; first compound 0.253 µM)	relative viability ([1]; first compound 0.8 µM)	relative viability ([1]; first compound 2.53 µM)	relative viability ([1]; first compound 8 µM)	relative viability (MLN4924 + Navitoclax; first compound 0.04 µM)	relative viability (MLN4924 + Navitoclax; first compound 0.1265 µM)	relative viability (MLN4924 + Navitoclax; first compound 0.4 µM)	relative viability (MLN4924 + Navitoclax; first compound 1.265 µM)	relative viability (MLN4924 + Navitoclax; first compound 4 µM)
NCI-H2405	0.588	0.405	0.472	0.45	0.428	1.09	1.12	0.686	0.246	0.245	0.552	0.542	0.542	0.543	0.449	0.874	0.702	0.273	0.13	0.171
NCI-H2009	0.825	0.816	0.761	0.79	0.558	0.816	0.36	0.247	0.143	0.0806	0.203	0.202	0.182	0.207	0.183	0.809	0.365	0.293	0.0903	0.0793
HOP-62	0.527	0.747	0.663	0.64	0.65	0.433	0.272	0.151	0.0627	0.0635	0.441	0.431	0.462	0.409	0.383	0.553	0.238	0.171	0.111	0.0613
NCI-H727	0.348	0.512	0.314	0.29	0.352	0.402	0.169	0.234	0.21	0.24	0.732	0.668	0.726	0.573	0.591	0.303	0.255	0.269	0.231	0.19
COR-L 105	0.403	0.391	0.422	0.427	0.34	0.8	0.615	0.424	0.283	0.231	0.442	0.427	0.384	0.379	0.414	0.725	0.511	0.326	0.231	0.281
PC-3 [JPC-3]	0.912	0.684	0.761	0.701	0.706	0.975	0.923	0.679	0.383	0.386	0.537	0.577	0.511	0.526	0.512	0.785	0.788	0.66	0.321	0.419
NCI-H2347	0.65	0.516	0.623	0.708	0.74	0.908	0.731	0.57	0.424	0.41	0.456	0.418	0.423	0.482	0.42	0.676	0.677	0.44	0.305	0.369
SW 1573	0.408	0.603	0.492	0.555	0.399	0.928	0.766	0.389	0.0982	0.0789	0.484	0.438	0.43	0.369	0.273	0.887	1.12	0.439	0.0613	0.0532
NCI-H838	0.476	0.391	0.469	0.454	0.485	0.675	0.283	0.208	0.161	0.149	0.213	0.238	0.212	0.224	0.261	0.831	0.307	0.211	0.16	0.196
HCC-44	0.577	0.552	0.666	0.554	0.592	0.561	0.219	0.199	0.156	0.129	0.994	0.975	1	0.859	0.89	0.689	0.4	0.265	0.197	0.196
HCC-78	0.213	0.228	0.194	0.217	0.21	0.556	0.355	0.628	0.135	0.147	0.446	0.495	0.491	0.464	0.433	0.91	0.537	0.767	0.158	0.117
A-427	0.773	0.768	0.629	0.694	0.732	0.686	0.381	0.315	0.222	0.217	0.585	0.509	0.542	0.484	0.488	0.468	0.321	0.273	0.221	0.227
CAL-12T	0.484	0.398	0.345	0.376	0.486	0.717	0.636	0.237	0.135	0.143	0.402	0.514	0.506	0.483	0.406	1.11	1.11	0.469	0.398	0.204
SK-MES-1	0.402	0.272	0.358	0.328	0.303	0.976	0.825	0.35	0.215	0.207	0.354	0.298	0.316	0.329	0.315	1.04	1.04	0.62	0.199	0.166
NCI-H460	0.379	0.356	0.352	0.321	0.213	0.838	0.733	0.113	0.0176	0.0132	0.232	0.147	0.127	0.0559	0.052	1.01	1.04	0.431	0.0395	0.024
